For the experiment, the target named is HSV-1 TK (Human alphaherpesvirus 1 strain KOS, UniProt P17402). The experiment in a line: Thymidine kinase inhibitory assay. The class given is biochemical. Particulars: 1 μM [^3 H]thymidine, 5 mM ATP, pH 7.5, 37° C., 1 hour; 0-20 μM inhibitor; slope replots of Lineweaver-Burk plots. Here is the method: The reaction (50 μl) was performed in: 50 mM Tris-HCl pH 7.5, 5 mM MgCl2, 30 mM KCl, 2 mM dithiothreitol, 5 mM ATP, 1 μM [^3 H]thymidine, 0-20 μM potential inhibitor, 0.075 mg/ml bovine serum albumin, 0.1 unit/ml HSV-1 TK. Incubation was at 37° C. for 1 hour. Samples (40 μl) were spotted on DE-81 filter disks, washed with 1 mM ammonium formate (pH 7), three times with water, twice with ethanol, and dried. Radioactivity was quantitated in a scintillation counter.
TK (thymidine kinase) was affinity purified from HSV-1 (KOS) infected cells by published procedures (Fyfe (1982) Mol. Pharmacol. 21:432-437 and Field et al. (1990) Antiviral Res. 13:41-52). One unit is defined as 1 nanomole thymidine phosphorylated per hour.
In Table 2, inhibition constants were determined from slope replots (1/slope vs [I]) of Lineweaver-Burk plots. "N" indicates the number of experiments, and each experiment was done in triplicate.

Molecules are shown by their SMILES.

From patent US5306722A, “Thymidine derivatives and therapeutic method of use” (Bristol-Myers Squibb Company, priority 1992, dated 1994) come the findings set out here.

By Ki is commonly meant a dissociation constant, usually derived from enzyme kinetics or from competition with a known ligand.

Chain of HSV-1 TK (P17402 whole entry, looked up): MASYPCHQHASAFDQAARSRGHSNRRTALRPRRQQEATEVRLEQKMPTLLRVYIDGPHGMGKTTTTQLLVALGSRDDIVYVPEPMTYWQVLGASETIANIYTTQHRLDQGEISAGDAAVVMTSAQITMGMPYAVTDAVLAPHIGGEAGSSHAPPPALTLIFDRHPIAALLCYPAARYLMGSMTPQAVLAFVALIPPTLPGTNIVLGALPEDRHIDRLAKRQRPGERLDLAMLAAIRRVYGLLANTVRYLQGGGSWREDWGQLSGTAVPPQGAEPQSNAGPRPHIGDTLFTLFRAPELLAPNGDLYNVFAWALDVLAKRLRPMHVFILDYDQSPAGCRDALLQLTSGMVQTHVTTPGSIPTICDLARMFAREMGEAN

For the compound `CO[C@H]1O[C@@H](n2cc(C)c(=O)[nH]c2=O)C[C@@H]1O` (single isomer, unassigned) [Compound 2], the Ki was found to be 3.2 ± 0.3 µM.

In turn, `Cc1cn([C@H]2C[C@H](O)[C@@H](OCCc3ccccc3)O2)c(=O)[nH]c1=O` [Compound 12] registered a Ki of 26 µM.

Compound `Cc1cn([C@H]2C[C@@H](O)[C@H](OCCc3ccccc3)O2)c(=O)[nH]c1=O` [Compound 13] had a Ki of 4.3 ± 1.8 µM.

For `Cc1cn([C@H]2C[C@@H](O)[C@H](OCc3ccc(Br)cc3)O2)c(=O)[nH]c1=O` [Compound 16], the affinity corresponds to a Ki of 10.1 ± 4.7 µM.
